# Measurements reported in US20070049593A1 (priority 2004, published 2007).
# Structures can show the parent of a compound that is named as a salt.
# Target: T1, HCV polymerase (Hepatitis C virus genotype 1b, UniProt P26663)
# T1 construct: a region encoding NS5B (J Virol 1991 March, 65(3), 1105-13, 544 amino acids after deletion of 47 amino acids on the C-terminal); 6xHis (C); made in house; host or cells: Escherichia coli
# Experiment: biochemical
# Design: species or system HCV BK strain
# Summary of the method: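 His-tagged NS5B (BK strain, 47-aa C-terminal deletion, E. coli-expressed) at 0.5 μg/ml copied 5 μg/ml run-off RNA bearing the HCV 3′ UTR with 2 μM UTP plus [3H]UTP, 50 μM ATP/GTP, in pH 7.5 Tris with 5 mM MgCl2, 25 °C, 90 min. TCA-precipitated RNA was counted and IC50 calculated.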
# T1 sequence (P26663 2420-2963): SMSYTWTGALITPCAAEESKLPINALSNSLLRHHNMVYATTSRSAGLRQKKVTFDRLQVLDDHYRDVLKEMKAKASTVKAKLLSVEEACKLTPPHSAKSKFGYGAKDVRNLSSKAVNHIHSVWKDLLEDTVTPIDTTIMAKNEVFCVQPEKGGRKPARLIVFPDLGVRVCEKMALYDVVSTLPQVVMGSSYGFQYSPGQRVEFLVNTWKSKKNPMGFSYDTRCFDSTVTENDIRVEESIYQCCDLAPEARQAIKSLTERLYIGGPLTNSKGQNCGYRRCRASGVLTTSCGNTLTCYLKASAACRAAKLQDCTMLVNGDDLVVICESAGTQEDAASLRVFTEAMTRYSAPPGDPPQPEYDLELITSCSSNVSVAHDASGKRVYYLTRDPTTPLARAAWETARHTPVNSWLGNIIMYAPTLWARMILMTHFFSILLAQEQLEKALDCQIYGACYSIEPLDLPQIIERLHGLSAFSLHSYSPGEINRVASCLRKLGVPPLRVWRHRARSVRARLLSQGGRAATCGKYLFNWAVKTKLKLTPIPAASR
row,Structure (SMILES),IC50 [nM]
1,"CCN(CCN1CCCOCC1)c1cccc2c1OCCn1c-2c(C2CCCCC2)c2ccc(C(=O)O)cc21 [Example 2-168, 12-cyclohexyl-4-{N-ethyl-N-[2-(1,4-oxazepan-4-yl)ethyl]amino}-6,7-dihydro-5-oxa-7a-azadibenzo[a,e]azulene-9-carboxylic acid dihydrochloride]",< 100
2,"CCN(CCCN1CCCCC1)c1cccc2c1OCCn1c-2c(C2CCCCC2)c2ccc(C(=O)O)cc21 [Example 2-169, 12-cyclohexyl-4-{N-ethyl-N-[3-(piperidin-1-yl)propyl]amino}-6,7-dihydro-5-oxa-7a-azadibenzo[a,e]azulene-9-carboxylic acid dihydrochloride]",< 100
3,"CCN(CCN1CCOCC1)c1cccc2c1OCCn1c-2c(C2CCCCC2)c2ccc(C(=O)O)cc21 [Example 2-170, 12-cyclohexyl-4-{N-ethyl-N-[2-(morpholin-4-yl)ethyl]amino}-6,7-dihydro-5-oxa-7a-azadibenzo[a,e]azulene-9-carboxylic acid dihydrochloride]",< 100
4,"CC(C)(NC(=O)c1ccc2c(C3CCCCC3)c3n(c2c1)CCOc1ccccc1-3)c1ccc(CO)cc1 [Example 2-171, N-[1-(4-hydroxymethylphenyl)-1-methylethyl]-12-cyclohexyl-6,7-dihydro-5-oxa-7a-azadibenzo[a,e]azulene-9-carboxamide]",< 100
5,"CCOC(=O)c1csc(C(C)(C)NC(=O)c2ccc3c(C4CCCCC4)c4n(c3c2)CCOc2ccccc2-4)n1 [Example 2-172, ethyl 2-{1-[(12-cyclohexyl-6,7-dihydro-5-oxa-7a-azadibenzo[a,e]azulene-9-carbonyl)amino]-1-methylethyl}thiazole-4-carboxylate]",< 100
6,"CNC(=O)c1ccc2c(C3CCCCC3)c3n(c2c1)CCOc1ccccc1-3 [Example 2-173, N-methyl-12-cyclohexyl-6,7-dihydro-5-oxa-7a-azadibenzo[a,e]azulene-9-carboxamide]",< 100
7,"O=C(O)/C=C/c1ccc(NC(=O)C2(NC(=O)c3ccc4c(C5CCCCC5)c5n(c4c3)CCOc3ccccc3-5)CCNCC2)cc1 [Example 2-174, (E)-3-[4-({4-[(12-cyclohexyl-6,7-dihydro-5-oxa-7a-azadibenzo[a,e]azulene-9-carbonyl)amino]piperidine-4-carbonyl}amino)phenyl]acrylic acid]",< 100
8,"COC(=O)[C@H](Cc1ccc(O)cc1)NC(=O)c1ccc2c(C3CCCCC3)c3n(c2c1)CCOc1ccccc1-3 [Example 2-175, methyl (S)-2-[(12-cyclohexyl-6,7-dihydro-5-oxa-7a-azadibenzo[a,e]azulene-9-carbonyl)amino]-3-(4-hydroxyphenyl)propionate]",< 100
9,"CN(C)C(=O)CNc1cccc2c1OCCn1c-2c(C2CCCCC2)c2ccc(C(=O)O)cc21 [Example 2-176, 12-cyclohexyl-4-(dimethylcarbamoylmethylamino)-6,7-dihydro-5-oxa-7a-azadibenzo[a,e]azulene-9-carboxylic acid]",< 100
10,"CC(C)(NC(=O)c1ccc2c(C3CCCCC3)c3n(c2c1)CCOc1ccccc1-3)C(=O)N[C@H]1CC[C@H](O)CC1 [Example 2-177, N-[1-(trans-4-hydroxycyclohexylcarbamoyl)-1-methylethyl]-12-cyclohexyl-6,7-dihydro-5-oxa-7a-azadibenzo[a,e]azulene-9-carboxamide]",< 100
11,"CCN(C(=O)CN1CCCCC1)c1cccc2c1OCCn1c-2c(C2CCCCC2)c2ccc(C(=O)O)cc21 [Example 2-178, 12-cyclohexyl-4-{N-ethyl-N-[2-(piperidin-1-yl)acetyl]amino}-6,7-dihydro-5-oxa-7a-azadibenzo[a,e]azulene-9-carboxylic acid monohydrochloride]",< 100
12,"O=C(Nc1ccc(OCc2ccccc2)cc1)c1ccc2c(C3CCCCC3)c3n(c2c1)CCOc1ccccc1-3 [Example 2-179, N-(4-benzyloxyphenyl)-12-cyclohexyl-6,7-dihydro-5-oxa-7a-azadibenzo[a,e]azulene-9-carboxamide]",100 to 1000
13,"O=C(N[C@@H](Cc1ccc(O)cc1)C(=O)O)c1ccc2c(C3CCCCC3)c3n(c2c1)CCOc1ccccc1-3 [Example 2-180, (S)-2-[(12-cyclohexyl-6,7-dihydro-5-oxa-7a-azadibenzo[a,e]azulene-9-carbonyl)amino]-3-(4-hydroxyphenyl)propionic acid]",< 100
14,"CC(=O)N1CCC(NC(=O)c2ccc3c(C4CCCCC4)c4n(c3c2)CCOc2ccccc2-4)(C(=O)O)CC1 [Example 2-181, 1-acetyl-4-[(12-cyclohexyl-6,7-dihydro-5-oxa-7a-azadibenzo[a,e]azulene-9-carbonyl)amino]piperidine-4-carboxylic acid]",< 100
15,"CN1CCC(NC(=O)c2ccc3c(C4CCCCC4)c4n(c3c2)CCOc2ccccc2-4)(C(=O)O)CC1 [Example 2-182, 4-[(12-cyclohexyl-6,7-dihydro-5-oxa-7a-azadibenzo[a,e]azulene-9-carbonyl)amino]-1-methylpiperidine-4-carboxylic acid]",< 100
16,"CC(C)(CNc1ccc(C(=O)O)cc1)NC(=O)c1ccc2c(C3CCCCC3)c3n(c2c1)CCOc1ccccc1-3 [Example 2-183, 4-{2-[(12-cyclohexyl-6,7-dihydro-5-oxa-7a-azadibenzo[a,e]azulene-9-carbonyl)amino]-2-methylpropylamino}benzoic acid]",< 100
17,"CC(C)(CNc1ccc(C(N)=O)cc1)NC(=O)c1ccc2c(C3CCCCC3)c3n(c2c1)CCOc1ccccc1-3 [Example 2-184, N-[2-(4-carbamoylphenylamino)-1,1-dimethylethyl]-12-cyclohexyl-6,7-dihydro-5-oxa-7a-azadibenzo[a,e]azulene-9-carboxamide]",< 100
18,"CC(C)(CNC(=O)OC(C)(C)C)NC(=O)c1ccc2c(C3CCCCC3)c3n(c2c1)CCOc1ccccc1-3 [Example 2-185, tert-butyl {2-[(12-cyclohexyl-6,7-dihydro-5-oxa-7a-azadibenzo[a,e]azulene-9-carbonyl)amino]-2-methylpropyl}carbamate]",100 to 1000
19,"CC(C)(CN)NC(=O)c1ccc2c(C3CCCCC3)c3n(c2c1)CCOc1ccccc1-3 [Example 2-186, N-(2-amino-1,1-dimethylethyl)-12-cyclohexyl-6,7-dihydro-5-oxa-7a-azadibenzo[a,e]azulene-9-carboxamide monohydrochloride]",100 to 1000
20,"CC(C)(CNCC(=O)O)NC(=O)c1ccc2c(C3CCCCC3)c3n(c2c1)CCOc1ccccc1-3 [Example 2-187, (2-[(12-cyclohexyl-6,7-dihydro-5-oxa-7a-azadibenzo[a,e]azulene-9-carbonyl)amino]-2-methylpropylamino)acetic acid]",100 to 1000
21,"CC(C)(COc1ccc([N+](=O)[O-])cc1)NC(=O)c1ccc2c(C3CCCCC3)c3n(c2c1)CCOc1ccccc1-3 [Example 2-188, N-[1,1-dimethyl-2-(4-nitrophenoxy)ethyl]-12-cyclohexyl-6,7-dihydro-5-oxa-7a-azadibenzo[a,e]azulene-9-carboxamide]",100 to 1000
22,"CN(C)CC(C)(NC(=O)c1ccc2c(C3CCCCC3)c3n(c2c1)CCOc1ccccc1-3)C(=O)O (stereo not shown) [Example 2-189, 2-[(12-cyclohexyl-6,7-dihydro-5-oxa-7a-azadibenzo[a,e]azulene-9-carbonyl)amino]-3-dimethylamino-2-methylpropionic acid]",100 to 1000
